Test results published in patent US4478842A, “N-Substituted-2-pyridylindoles” (Ciba-Geigy Corporation, priority 1982, dated 1984).
pIC50: −log10 of the molar value. Structures can show the parent of a compound that is named as a salt.

Key:
prostacyclin (PGI2) = assay: plasma level of prostacyclin (6-keto-PGF1α) in vivo (ionophore A23187 injected); conditions: rat, oral dose 0.10 mg/kg or higher
Procedure: (§1) The inhibition of the synthesis and the reduction of plasma levels of thromboxane is determined in vivo on administration to rats in the following manner (as adapted from the procedures described by Tai et al. in Anal. Biochem. 87:343, 1978 and by Salmon in Prostaglandins 15:383, 1978):
(§2) Rats are dosed with vehicle or test drug and injected intravenously with ionophore A23187 (0.5 mg/kg) two hours later. Blood is collected for analysis 2 minutes after the ionophore injection. A single aliquot of each plasma sample is assayed for thromboxane B2 and another aliquot for 6-keto-PGF1 α, the stable metabolites of thromboxane A2 and prostacyclin (PGI2) respectively, by radioimmunoassay.

platelet aggregation = assay: variously induced platelet aggregation
Source text: (§3) Experimentally, prolongation of bleeding time in the rat is indicative of a beneficial antithrombotic effect.

thrombocytopenia = assay: variously induced thrombocytopenia; conditions: in vivo
bleeding time = assay: prolongation of bleeding time in the rat; format: in vivo; conditions: orally to rats, about 30 mg/kg
Source text: as §3

[1] = test system: arachidonic acid induced pulmonary obstruction; assay: protection against sudden death due to arachidonic acid induced pulmonary obstruction; format: in vivo; conditions: orally to mice, 100 mg/kg
thromboxane synthetase = molecular target: T1, thromboxane synthetase (Homo sapiens, UniProt P24557); assay: in vitro inhibition of the thromboxane synthetase enzyme (TxB2/PGF2α+β ratio); format: biochemical; conditions: 30 minutes incubation
T1 construct: crude microsomal preparation of thromboxane synthetase from lysed human platelets; from tissue; host or cells: human platelets (lysed), crude microsomal preparation
T1 sequence (P24557 1-533): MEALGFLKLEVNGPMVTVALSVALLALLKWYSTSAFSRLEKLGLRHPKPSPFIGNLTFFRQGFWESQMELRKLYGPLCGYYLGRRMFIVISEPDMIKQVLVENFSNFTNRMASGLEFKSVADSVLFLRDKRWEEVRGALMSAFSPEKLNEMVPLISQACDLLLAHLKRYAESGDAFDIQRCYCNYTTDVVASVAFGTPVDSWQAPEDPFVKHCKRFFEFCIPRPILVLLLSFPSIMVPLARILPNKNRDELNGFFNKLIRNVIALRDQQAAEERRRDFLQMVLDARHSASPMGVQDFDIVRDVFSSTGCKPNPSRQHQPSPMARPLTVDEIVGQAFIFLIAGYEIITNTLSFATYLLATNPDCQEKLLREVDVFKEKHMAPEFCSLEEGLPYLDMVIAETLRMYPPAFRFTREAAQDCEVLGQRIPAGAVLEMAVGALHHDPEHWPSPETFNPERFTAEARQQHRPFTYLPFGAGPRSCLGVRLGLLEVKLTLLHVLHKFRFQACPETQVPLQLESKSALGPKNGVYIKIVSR
Procedure: Res. Comm. 74, 1432 (1977); the testing procedure is as follows: ^14 C-Arachidonic acid is incubated with an enzyme consisting of solubilized and partially purified prostaglandin cyclo-oxygenase from sheep seminal vesicles and a crude microsomal preparation of thromboxane synthetase from lysed human platelets. The test compound (dissolved in buffer, or if necessary, in a small amount of ethanol) is added to the incubation medium. […] The radioactive zones are located; those corresponding to Thromboxane B2 (TxB2) and PGF2 α+β are transferred to liquid scintillation vials and counted. The ratio of counts for TxB2 /PGF2 α+β is calculated for each concentration of test compound and IC50 values are determined graphically as the concentration of test compound at which the ratio of TxB2 /PGF2 α+β is reduced to 50% of the control value.

thromboxane B2 = assay: reduction of plasma levels of thromboxane B2 in vivo (ionophore A23187 injected); conditions: rat, oral dose as low as 0.10 mg/kg
Procedure: as §1, §2

## Cc1c(-c2cccnc2)n(CCCCCCCC(=O)O)c2ccccc12 [Example 1, 1-(7-carboxyheptyl)-3-methyl-2-(3-pyridyl)indole]
Prostacyclin (PGI2)
  plasma level of prostacyclin: surprising increase
Platelet aggregation
  inhibition of variously induced platelet aggregation: inhibits variously induced platelet aggregation
thrombocytopenia
  inhibition of variously induced thrombocytopenia: inhibits variously induced platelet aggregation and thrombocytopenia
Bleeding time
  prolongation of bleeding time: prolongs bleeding time
[1]
  protection against sudden death: protects against sudden death

## Cc1c(-c2cccnc2)n(CCOc2ccc(C(=O)O)cc2)c2ccccc12 [Example 20, 1-[2-(4-carboxyphenoxy)ethyl]-2-(3-pyridyl)-3-methylindole]
Thromboxane synthetase
  pIC50: 7.59

## Cc1c(-c2cccnc2)n(CCSc2ccc(C(=O)O)cc2)c2ccccc12 [Example 22, 1-[2-(4-carboxyphenylthio)ethyl]-2-(3-pyridyl)-3-methylindole hydrochloride]
Thromboxane synthetase
  pIC50: 7.24

## Cc1c(-c2cccnc2)n(CCCCCC(=O)O)c2ccc(Cl)cc12 [Example 7, 1-(5-carboxypentyl)-5-chloro-3-methyl-2-(3-pyridyl)indole]
Thromboxane B2
  decrease of the plasma concentration of thromboxane B2: over 50%
Prostacyclin (PGI2)
  plasma level of prostacyclin: surprising increase
